Laboratory results taken from ChEMBL document CHEMBL1201862, “PubChem BioAssay data set” (2004).
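Dose response: 5 concentrations. Exposure: 48 h. Format: 96-well plates. Endpoint: linear interpolation; highest concentration if not reached. At the GI50, growth is halved.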 The source made the active and inactive calls. Cut-off read from the data, not from the text of the source: active = GI50 up to about 1.1 µM and inactive = higher.

Assays:
Experiment in all cases: NCI anticancer screen, dose series, 48 h
786-0 = tested on: 786-0
K562 = tested on: K562
A498 = tested on: A498
EKVX = tested on: EKVX
SW-620 = tested on: SW-620
TK-10 = tested on: TK-10
CCRF-CEM = tested on: CCRF-CEM
SR = tested on: SR
HCT-15 = tested on: HCT-15
CAKI-1 = tested on: CAKI-1
MOLT-4 = tested on: MOLT-4
KM12 = tested on: KM12
HL-60 = tested on: HL-60
RXF 393 = tested on: RXF 393
ACHN = tested on: ACHN
MDA-MB-231 = tested on: MDA-MB-231
NCI-H460 = tested on: NCI-H460
T47D = tested on: T47D
RPMI-8226 = tested on: RPMI-8226
OVCAR-8 = tested on: OVCAR-8
SF-295 = tested on: SF-295
Malme-3M = tested on: Malme-3M
SF-539 = tested on: SF-539
BT-549 = tested on: BT-549
HT-29 = tested on: HT-29
SF-268 = tested on: SF-268
SNB-75 = tested on: SNB-75
NCI-H522 = tested on: NCI-H522
HOP-92 = tested on: HOP-92
UACC-62 = tested on: UACC-62
MCF7 = tested on: MCF7
U-251 = tested on: U-251
LOX IMVI = tested on: LOX IMVI
NCI/ADR-RES = tested on: NCI/ADR-RES
NCI-H226 = tested on: NCI-H226
SK-MEL-2 = tested on: SK-MEL-2
MDA-N = tested on: MDA-N
HOP-62 = tested on: HOP-62
OVCAR-5 = tested on: OVCAR-5
SN12C = tested on: SN12C
COLO 205 = tested on: COLO 205
SK-MEL-28 = tested on: SK-MEL-28
IGROV-1 = tested on: IGROV-1
NCI-H23 = tested on: NCI-H23
DU-145 = tested on: DU-145
UO-31 = tested on: UO-31
HCC 2998 = tested on: HCC 2998
UACC-257 = tested on: UACC-257
SK-MEL-5 = tested on: SK-MEL-5
Hs-578T = tested on: Hs-578T
A549 = tested on: A549
PC-3 = tested on: PC-3
OVCAR-4 = tested on: OVCAR-4
OVCAR-3 = tested on: OVCAR-3
HCT-116 = tested on: HCT-116
MDA-MB-435 = tested on: MDA-MB-435
M14 = tested on: M14
SNB-19 = tested on: SNB-19
SK-OV-3 = tested on: SK-OV-3

## CS(=O)(=O)N1CC(CCl)c2ccc(O)cc21 (configuration not stated)
786-0
  GI50: 3.31 µM (inactive)
K562
  GI50: 2.47 µM (inactive)
A498
  GI50: 1.83 µM (inactive)
EKVX
  GI50: 5.31 µM (inactive)
SW-620
  GI50: 2.6 µM (inactive)
TK-10
  GI50: 2.32 µM (inactive)
CCRF-CEM
  GI50: 1.58 µM (inactive)
SR
  GI50: 2.84 µM (inactive)
HCT-15
  GI50: 3.15 µM
CAKI-1
  GI50: 2.42 µM (inactive)
MOLT-4
  GI50: 2.09 µM (inactive)
KM12
  GI50: 2.46 µM (inactive)
HL-60
  GI50: 1.57 µM (inactive)
RXF 393
  GI50: 1.4 µM (inactive)
ACHN
  GI50: 3.4 µM (inactive)
MDA-MB-231
  GI50: 2.2 µM (inactive)
NCI-H460
  GI50: 2.9 µM (inactive)
T47D
  GI50: 7.4 µM (inactive)
RPMI-8226
  GI50: 2.03 µM (inactive)
OVCAR-8
  GI50: 2.08 µM (inactive)
SF-295
  GI50: 2.95 µM (inactive)
Malme-3M
  GI50: 2.19 µM (inactive)
SF-539
  GI50: 2.04 µM (inactive)
BT-549
  GI50: 2.02 µM (inactive)
HT-29
  GI50: 2.86 µM (inactive)
SF-268
  GI50: 0.155 µM (active)
SNB-75
  GI50: 2.71 µM (inactive)
NCI-H522
  GI50: 1.47 µM (inactive)
HOP-92
  GI50: 3.11 µM (inactive)
UACC-62
  GI50: 4.17 µM (inactive)
MCF7
  GI50: 1.98 µM (inactive)
U-251
  GI50: 2.74 µM (inactive)
LOX IMVI
  GI50: 3.57 µM (inactive)
NCI/ADR-RES
  GI50: 2.56 µM (inactive)
NCI-H226
  GI50: 2.34 µM (inactive)
SK-MEL-2
  GI50: 2.94 µM (inactive)
MDA-N
  GI50: 1.52 µM (inactive)
HOP-62
  GI50: 3.56 µM (inactive)
OVCAR-5
  GI50: 3.63 µM (inactive)
SN12C
  GI50: 2.91 µM (inactive)
COLO 205
  GI50: 1.9 µM (inactive)
SK-MEL-28
  GI50: 3.4 µM (inactive)
IGROV-1
  GI50: 2.07 µM (inactive)
NCI-H23
  GI50: 2.02 µM (inactive)
DU-145
  GI50: 3.46 µM (inactive)
UO-31
  GI50: 2.32 µM (inactive)
HCC 2998
  GI50: 1.95 µM (inactive)
UACC-257
  GI50: 2.44 µM (inactive)
SK-MEL-5
  GI50: 1.55 µM (inactive)
Hs-578T
  GI50: 4.32 µM (inactive)
A549
  GI50: 3.19 µM (inactive)
PC-3
  GI50: 2.17 µM (inactive)
OVCAR-4
  GI50: 2.86 µM (inactive)
OVCAR-3
  GI50: 2.95 µM (inactive)
HCT-116
  GI50: 2.71 µM (inactive)
MDA-MB-435
  GI50: 1.89 µM (inactive)

## Cc1cc(C)nc(NC(=S)Nc2ccc(Cl)cc2)c1
786-0
  GI50: 22.5 µM (inactive)
K562
  GI50: > 100 µM (inactive)
M14
  GI50: > 100 µM (inactive)
A498
  GI50: 48.3 µM (inactive)
EKVX
  GI50: 17.4 µM (inactive)
SW-620
  GI50: > 100 µM (inactive)
TK-10
  GI50: 33.7 µM (inactive)
CCRF-CEM
  GI50: > 100 µM (inactive)
SR
  GI50: > 100 µM (inactive)
HCT-15
  GI50: > 100 µM
CAKI-1
  GI50: 60.5 µM (inactive)
MOLT-4
  GI50: > 100 µM (inactive)
KM12
  GI50: 53.6 µM (inactive)
HL-60
  GI50: > 100 µM (inactive)
RXF 393
  GI50: 36.1 µM (inactive)
MDA-MB-231
  GI50: 74.8 µM (inactive)
NCI-H460
  GI50: 66.7 µM (inactive)
T47D
  GI50: > 100 µM (inactive)
RPMI-8226
  GI50: > 100 µM (inactive)
OVCAR-8
  GI50: 20.1 µM (inactive)
SF-295
  GI50: 43.1 µM (inactive)
Malme-3M
  GI50: 34.8 µM (inactive)
SF-539
  GI50: 53.2 µM (inactive)
BT-549
  GI50: > 100 µM (inactive)
HT-29
  GI50: > 100 µM (inactive)
SF-268
  GI50: 21.3 µM (inactive)
SNB-75
  GI50: 11.9 µM (inactive)
NCI-H522
  GI50: 1.37 µM (inactive)
UACC-62
  GI50: > 100 µM (inactive)
MCF7
  GI50: > 100 µM (inactive)
U-251
  GI50: 35.9 µM (inactive)
LOX IMVI
  GI50: > 100 µM (inactive)
NCI/ADR-RES
  GI50: 29.2 µM (inactive)
NCI-H226
  GI50: 27.8 µM (inactive)
SK-MEL-2
  GI50: > 100 µM (inactive)
MDA-N
  GI50: > 100 µM (inactive)
HOP-62
  GI50: 35.9 µM (inactive)
SNB-19
  GI50: > 100 µM (inactive)
OVCAR-5
  GI50: 29.2 µM (inactive)
SN12C
  GI50: > 100 µM (inactive)
COLO 205
  GI50: > 100 µM (inactive)
SK-OV-3
  GI50: 23.4 µM (inactive)
SK-MEL-28
  GI50: > 100 µM (inactive)
IGROV-1
  GI50: 65.8 µM (inactive)
DU-145
  GI50: > 100 µM (inactive)
UO-31
  GI50: > 100 µM (inactive)
UACC-257
  GI50: > 100 µM (inactive)
SK-MEL-5
  GI50: > 100 µM (inactive)
Hs-578T
  GI50: 21.5 µM (inactive)
A549
  GI50: > 100 µM (inactive)
PC-3
  GI50: > 100 µM (inactive)
OVCAR-4
  GI50: 18.4 µM (inactive)
OVCAR-3
  GI50: > 100 µM (inactive)
HCT-116
  GI50: > 100 µM (inactive)
MDA-MB-435
  GI50: > 100 µM (inactive)

## O=C1Nc2ccc(Br)cc2/C1=N/NC(=S)Nc1ccc(F)cc1
786-0
  GI50: 7.67 µM (inactive)
K562
  GI50: 3.61 µM (inactive)
A498
  GI50: 2.26 µM (inactive)
SW-620
  GI50: 4.78 µM (inactive)
TK-10
  GI50: 5.86 µM (inactive)
SR
  GI50: 1.71 µM (inactive)
HCT-15
  GI50: 1.37 µM
CAKI-1
  GI50: 2.12 µM (inactive)
MOLT-4
  GI50: 2.58 µM (inactive)
KM12
  GI50: 5.11 µM (inactive)
HL-60
  GI50: 1.6 µM (inactive)
RXF 393
  GI50: 1.76 µM (inactive)
ACHN
  GI50: 3.43 µM (inactive)
MDA-MB-231
  GI50: 12.6 µM (inactive)
NCI-H460
  GI50: 1.59 µM (inactive)
T47D
  GI50: 4.9 µM (inactive)
OVCAR-8
  GI50: 4.25 µM (inactive)
SF-295
  GI50: 3.69 µM (inactive)
Malme-3M
  GI50: 4.95 µM (inactive)
SF-539
  GI50: 9.91 µM (inactive)
BT-549
  GI50: 0.395 µM (active)
HT-29
  GI50: 5.38 µM (inactive)
SF-268
  GI50: 4.31 µM (inactive)
SNB-75
  GI50: 11.1 µM (inactive)
NCI-H522
  GI50: 10.5 µM (inactive)
HOP-92
  GI50: 3.61 µM (inactive)
UACC-62
  GI50: 2.56 µM (inactive)
MCF7
  GI50: 3.43 µM (inactive)
U-251
  GI50: 3.53 µM (inactive)
LOX IMVI
  GI50: 4.7 µM (inactive)
NCI/ADR-RES
  GI50: 1.48 µM (inactive)
NCI-H226
  GI50: 9.84 µM (inactive)
SK-MEL-2
  GI50: 10.9 µM (inactive)
MDA-N
  GI50: 2.98 µM (inactive)
HOP-62
  GI50: 8.07 µM (inactive)
OVCAR-5
  GI50: 43.2 µM (inactive)
SN12C
  GI50: 4.15 µM (inactive)
COLO 205
  GI50: 4.02 µM (inactive)
SK-OV-3
  GI50: 13.2 µM (inactive)
SK-MEL-28
  GI50: 3.94 µM (inactive)
IGROV-1
  GI50: 0.948 µM (active)
NCI-H23
  GI50: 0.794 µM (active)
DU-145
  GI50: 4.3 µM (inactive)
UACC-257
  GI50: 9.77 µM (inactive)
SK-MEL-5
  GI50: 3.67 µM (inactive)
Hs-578T
  GI50: 12 µM (inactive)
PC-3
  GI50: 5.27 µM (inactive)
OVCAR-4
  GI50: 7.24 µM (inactive)
OVCAR-3
  GI50: 13.3 µM (inactive)
HCT-116
  GI50: 3.87 µM (inactive)
MDA-MB-435
  GI50: 2.4 µM (inactive)
